# Laboratory results from article PMC8400920, “Metabolism of Diterpenoids Derived from the Bark of Cinnamomum cassia in Human Liver Microsomes” (Pharmaceutics, 2021).
# “Also recorded” adds a separate entry of the source.
# Key:
# CYPs = test: Metabolism of AHC in HLMs with SKF-525A, a nonselective CYP inhibitor; assay type: in vitro ADME, human; conditions: 10 µM AHC, 1 mg/mL HLMs, NGS, 60 min, depending on SKF-525A concentration
# Protocol: To investigate CYP-mediated metabolism, 10 µM AHC was mixed with 1 mg/mL pooled HLMs and 0.1 M potassium phosphate buffer (pH 7.4). Then, SKF-525A, a general inhibitor of CYPs, was added at concentrations of 0.5, 1, and 5 mM. The reactions were initiated with the addition of NGS at […] for 60 min. After 60 min, the reactions were terminated by adding 400 µL of 100% acetonitrile. The mixtures were then centrifuged at 15,700× g for 10 min. Subsequently, 550 µL of supernatant was dried in a vacuum concentrator. The residue was dissolved in 100 µL of 20% MeOH (0.1% formic acid), and 5 µL of this sample was injected into a C18 column for LC–MS/MS analysis.
# To confirm the metabolism of AHC by CYP enzymes, AHC was incubated in HLMs with SKF-525A, i.e., a nonspecific CYP inhibitor (Figure S7). […] Consequently, as the metabolism of AHC was inhibited by SKF-525A treatment, the production of all metabolites was reduced in an SKF-525A concentration-dependent manner.
# CYP3A4 = target: T1, CYP3A4 (Homo sapiens, UniProt P08684); test: AHC metabolism by recombinant cDNA-expressed CYP isoform; assay type: in vitro ADME; conditions: 10 µM AHC, 10 pmol recombinant CYP3A4, NGS, 37 °C, 60 min
# T1 construct: purchased Corning Gentest
# T1 sequence (P08684 whole entry, canonical isoform): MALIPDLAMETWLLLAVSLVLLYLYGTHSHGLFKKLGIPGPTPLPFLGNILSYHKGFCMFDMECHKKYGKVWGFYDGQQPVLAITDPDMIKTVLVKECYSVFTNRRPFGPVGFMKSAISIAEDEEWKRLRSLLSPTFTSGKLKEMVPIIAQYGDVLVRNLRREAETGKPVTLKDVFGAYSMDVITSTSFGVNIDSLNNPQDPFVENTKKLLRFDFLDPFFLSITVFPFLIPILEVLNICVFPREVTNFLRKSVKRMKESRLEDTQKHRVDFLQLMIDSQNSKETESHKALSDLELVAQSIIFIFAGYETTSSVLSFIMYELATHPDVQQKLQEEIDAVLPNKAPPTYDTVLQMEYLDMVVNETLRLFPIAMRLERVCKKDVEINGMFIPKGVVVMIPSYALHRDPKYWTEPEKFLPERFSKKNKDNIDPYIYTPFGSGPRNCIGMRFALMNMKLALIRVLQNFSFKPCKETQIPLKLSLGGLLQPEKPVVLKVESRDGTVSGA
# Protocol: To identify the metabolic enzymes for AHC, 10 µM AHC was incubated with 10 pmol of human recombinant cDNA-expressed CYP isoforms (CYP1A1, 1A2, 2A6, 2B6, 2C8, 2C9, 2C19, 2D6, 2E1, 3A4, and 3A5) in the presence of 0.1 M potassium phosphate buffer (pH 7.4). The reaction was initiated by adding 100 µL of NGS at 37 °C for 60 min. Then, the mixture was suspended by adding 400 µL of ice-cold 100% ACN. Following centrifugation at 15,700× g for 10 min at 4 °C, the supernatant was transferred to a new tube and evaporated using a speed-vacuum concentrator. Next, the dried sample was diluted with 100 µL of 20% MeOH containing 0.1% formic acid, and a 5 µL aliquot was injected into a C18 column for LC–MS/MS analysis.
# To identify the CYP isoforms involved in AHC metabolism, AHC (10 µM) was incubated with eleven cDNA-expressed recombinant CYP isoforms (CYP1A1, CYP1A2, CYP2A6, CYP2B6, CYP2C8, CYP2C9, CYP2C19, CYP2D6, CYP2E1, CYP3A4, and CYP3A5) in the presence of the NGS. […] However, the metabolites of AHC were not observed from reactions with other CYPs. Thus, in the metabolism of AHC in HLMs, CYP3A4 was involved as the main enzyme, and four types of metabolites were generated.
# [1] = tested on: human liver microsomes (HLMs); test: Metabolic stability of seven diterpenoids in human liver microsomes; assay type: in vitro ADME; conditions: 10 µM, 0.5 mg/mL HLMs, 37 °C, 60 min
# Protocol: For metabolism profiling, 10 µM of each of the seven compounds isolated from C. cassia bark was added to 0.5 mg/mL of pooled HLMs and 0.1 M potassium phosphate buffer (pH 7.4). The HLMs were then preincubated at 37 °C for 1 min. After adding NGS, the reaction mixture was incubated at 37 °C for 60 min. After the 60 min incubation period, 50 µL of the reaction mixture was transferred to a new tube, and 50 µL of 100% ACN containing 0.1% formic acid and tolbutamide (internal standard) was added to terminate the reaction. The mixture was then vortexed, followed by centrifugation at 15,700× g (13,000 rpm) for 10 min (Eppendorf AG, Hamburg, Germany). Finally, 90 µL of the supernatant was transferred to a vial and injected into a C18 column for LC–MS/MS analysis.
# The metabolism screening of the seven compounds was performed using an HPLC system (Thermo Fisher Scientific, Bremen, Germany) equipped with an HPG-3200SD standard binary pump, a WPS-3000 TRS analytical autosampler, and a TCC-3000 SD column compartment. The HPLC system was coupled with an HR-MS (Q-Exactive Focus Quadrupole-Orbitrap MS; Thermo Fisher Scientific, Waltham, MA, USA) at the Mass Spectrometry Convergence Research Center. The full MS resolution and scan ranges were 70,000 and 60–900 m/z, respectively. The MS/MS resolution was 35,000. The mass spectra were obtained in negative ion electrospray mode. A heated electrospray ionization (HESI-II) probe was used as an ion generator, with nitrogen as the sheath gas at 35 aux units and auxiliary gas at 12 aux units. The mass spectrometer was operated in negative ionization mode. The other parameters were as follows: spray voltage, 3.5 kV; capillary temperature, 320 °C; S-lens radio frequency level, 50; and aux gas heater temperature, 400 °C.
# The mobile phase consisted of 100% water with 0.1% formic acid (mobile phase A) and 100% ACN with 0.1% formic acid (mobile phase B). For metabolic stability, the gradient conditions were set as follows: 5% of B at 0.5–2.0 min, 5–50% of B at 2.0–4.5 min, 50% of B at 4.5–7.0 min, and 50–5% of B at 7.0–10.0 min at 40 °C with a flow rate of 0.2 mL/min. For metabolite identification, the gradient conditions were as follows: 10% of B at 0–5 min, 10–55% of B at 5–15 min, 55% of B at 15–23 min, and 55–10% of B at 23–30 min with a flow rate of 0.25 mL/min. Chromatographic separation was performed using a Kinetex C18 column (150 × 2.1 mm, 2.6 μm, XB-C18 100 Å, S/No: H19-070128; Phenomenex, Torrance, CA, USA). Data were analyzed using Xcalibur version 4.0 software (Thermo Fisher Scientific, Waltham, MA, USA).
# To confirm their metabolic stability, seven diterpenoids (AHC, anhydrocinnzeylanol, cinncassiol A, cinncassiol B, cinnzeylanol, cinnzeylanone, and cinnzeylanine) derived from the bark of C. cassia were incubated with HLMs in the presence of the NGS for 60 min (Figure 1B). The metabolic stability of each compound was determined according to the ratio of the peak area at 60 min to that at 0 min. […] Therefore, we identified the metabolites of AHC produced in HLMs.
structure (smiles),measurement,setting,value
"CC(=O)O[C@@H]1[C@@H](C)CC[C@]2(O)[C@]3(C)CC(=O)O[C@]12[C@@]1(O)C(C)=C(C(C)C)C[C@@]31O [AHC, anhydrocinnzeylanine]",residual amount of AHC after reaction with SKF-525A,CYPs,significantly increased
same,metabolism of AHC by CYP3A4,CYP3A4,major CYP responsible for the metabolism of AHC; also recorded: predominantly metabolized by CYP3A4
same,metabolic stability in HLMs (in words),[1]; NGS,most rapid metabolization; also recorded: unique reduction in metabolic stability; also recorded: highest metabolic rate
same,parent remaining after metabolism in HLMs (metabolized to),[1]; β-NADPH,3%
